Assay results taken from PubChem BioAssay (NCI).
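Cultured in 96-well plates, cells were exposed to test compound for 48 hours across five concentrations. The concentration for full growth arrest is given as TGI.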 Where a SMILES comes first, the peptide text is derived from it. [ ]: non-standard residue; d: D form. The star is where a group is joined. NMeV = CN[C@H](C(=O)O)C(C)C; X29 = COc1ccc(CN*)c(OC)c1; Octanoyl = CCCCCCCC(=O)*; dNMeA = CN[C@H](C)C(=O)O

Experiments:
Assay in all cases: NCI anticancer screen, dose series, 48 h
[1] = test system: A498 renal
[2] = test system: CCRF-CEM leukemia
[3] = test system: LOX IMVI melanoma
[4] = test system: MDA-N
[5] = test system: OVCAR-4 ovarian
[6] = test system: UACC-257 melanoma
[7] = test system: UO-31 renal
[8] = test system: K-562 leukemia

`COC1/C=C/C(C)C(C(C)C(OC)C(C)CCC(=O)C(C)C(C/C=C/N(C)C=O)OC)OC(=O)C=CC2OC2(C)CC(OC)C(OC)C2=CC(=O)O[C@@H](C(C)C(OC)CC(OC)/C=C/C(C)C(O)C1)[C@H]2O` (stereo not given in full) showed a TGI [1] of 0.0259 µM, a TGI [2] of over 1.24 µM and a TGI [3] of 0.00617 µM. It also gave a TGI [4] of 0.103 µM, a TGI [5] of over 1.24 µM and a TGI [6] of 0.0492 µM. It also gave a TGI [7] of 0.00831 µM.

Work on `CCCCn1c(N)c(-c2nc3ccccc3o2)sc1=S` yielded a TGI [1] of 98.8 µM, a TGI [2] of over 100 µM and a TGI [8] of over 100 µM. It also gave a TGI [4] of 69.1 µM, a TGI [5] of 19.9 µM and a TGI [6] of over 100 µM. For the same compound, the TGI [7] was 39 µM.

`CC1=NNC(=O)C1C1CC(c2c[nH]c3ccccc23)=NNC1=O` (stereo not given) was tested, and the TGI [1] was over 100 µM, the TGI [2] was over 100 µM and the TGI [8] was over 100 µM. It also gave a TGI [4] of over 100 µM, a TGI [6] of over 100 µM and a TGI [7] of over 100 µM.

`CN(C)c1ccc(NN=C2SC(=Nc3ccccc3)C(=Nc3ccccc3)S2)cc1` showed a TGI [1] of over 100 µM, a TGI [2] of over 100 µM and a TGI [3] of over 100 µM. For the same compound, the TGI [4] was over 100 µM, the TGI [5] was over 100 µM and the TGI [6] was over 100 µM. The TGI [7] was over 100 µM.

With `C/C(=N\Nc1ccc([N+](=O)[O-])cc1[N+](=O)[O-])c1sc(-n2nc(-c3ccccc3)cc2-c2ccccc2)nc1C` the TGI [1] was 92.3 µM, the TGI [2] was 50.9 µM and the TGI [3] was 63.9 µM. For the same compound, the TGI [4] was over 100 µM, the TGI [5] was over 100 µM and the TGI [6] was 84.7 µM. For the same compound, the TGI [7] was over 100 µM.

`O=C(NC1=C(Cl)C(=O)c2ccccc2C1=O)c1ccc(F)cc1` gave a TGI [4] of 12.9 µM, a TGI [5] of 20 µM and a TGI [6] of 7.43 µM.

`Cc1cc(S(=O)(=O)Nc2nc3ccccc3nc2-c2cccc([N+](=O)[O-])c2)c(S)cc1Cl` showed a TGI [1] of 29.1 µM, a TGI [2] of 75.7 µM and a TGI [8] of over 100 µM. It also gave a TGI [4] of 46.2 µM, a TGI [5] of 66.8 µM and a TGI [6] of 36 µM. For the same compound, the TGI [7] was 46.1 µM.

With `CN1c2ccccc2C(=O)NC12CCN(CCCC(=O)c1ccc(F)cc1)CC2` the TGI [2] was over 100 µM, the TGI [8] was 77.8 µM and the TGI [4] was over 100 µM. For the same compound, the TGI [5] was over 100 µM, the TGI [6] was 87.6 µM and the TGI [7] was over 100 µM.

Compound `CCOC(=O)C1C(c2ccc3c(c2)OCO3)c2c([nH][nH]c2=O)CC1(C)O` (stereo not given) has a TGI [1] of over 100 µM, a TGI [2] of over 100 µM and a TGI [3] of over 100 µM. The TGI [4] was over 100 µM, the TGI [5] was over 100 µM and the TGI [6] was over 100 µM. It also gave a TGI [7] of over 100 µM.

`NC(N)=NCC[C@H](NC(=O)OCCCCCn1ccc(=O)[nH]c1=O)C(=O)O` gave a TGI [2] of over 100 µM, a TGI [8] of over 100 µM and a TGI [3] of over 100 µM. The TGI [4] was over 100 µM, the TGI [5] was over 100 µM and the TGI [6] was over 100 µM. It also gave a TGI [7] of over 100 µM.

`N#Cc1sc2c(c1OC(=O)c1ccccc1)c(=O)n(-c1ccccc1)c(=S)n2-c1ccccc1` showed a TGI [2] of 61.6 µM, a TGI [8] of over 100 µM and a TGI [3] of 51.7 µM. It also gave a TGI [4] of 65.1 µM, a TGI [5] of 80.7 µM and a TGI [6] of over 100 µM. The TGI [7] was 35.6 µM.

For `CCCCCCCC(=O)N[C@H](C(=O)N[C@H](C(=O)N(C)[C@H](C(=O)N1CCC[C@H]1C(=O)N(C)[C@H](C)C(=O)NCc1ccc(OC)cc1OC)C(C)C)C(C)C)C(C)C` (Octanoyl-VV[NMeV]P[dNMeA]-X29), the TGI [1] was 12.2 µM, the TGI [2] was over 72.9 µM and the TGI [8] was over 100 µM. The TGI [3] was 30.8 µM, the TGI [5] was over 79.9 µM and the TGI [6] was 60.7 µM. The TGI [7] was over 100 µM.

For `C=CC[C@@H](N)C(=O)N(C)[C@@H](C)[C@@H](O)c1ccccc1`, the TGI [1] was over 100 µM, the TGI [2] was over 100 µM and the TGI [3] was over 100 µM. For the same compound, the TGI [4] was over 100 µM, the TGI [5] was over 100 µM and the TGI [6] was over 100 µM. It also gave a TGI [7] of over 100 µM.

Compound `CCN1CCC(C)OP1(=O)Cc1ccccc1` (stereo not given) has a TGI [8] of over 100 µM, a TGI [3] of over 100 µM and a TGI [5] of over 100 µM. It also gave a TGI [6] of over 100 µM and a TGI [7] of over 100 µM.

Compound `CC1(C)C=Cc2c(cc(O)c3c(=O)c4cc(Cl)ccc4[nH]c23)O1` has a TGI [2] of over 10 µM, a TGI [8] of over 10 µM and a TGI [3] of 8.11 µM. For the same compound, the TGI [4] was 8.58 µM, the TGI [5] was over 10 µM and the TGI [6] was over 10 µM. The TGI [7] was 5.91 µM.

`CCC(C=O)P1(=O)OC(C)(C)CN1C(C)(C)C` (stereo not given) gave a TGI [1] of over 100 µM, a TGI [8] of over 100 µM and a TGI [3] of over 100 µM. It also gave a TGI [5] of over 100 µM, a TGI [6] of over 100 µM and a TGI [7] of over 100 µM.

Work on `O=[N+]([O-])c1cccc2nnccc12` yielded a TGI [8] of over 100 µM, a TGI [4] of 34.5 µM and a TGI [6] of 39.9 µM. The TGI [7] was 95.4 µM.

With `COCc1nc(N)nc(N2N=C(C)CC2(C)C)n1` the TGI [1] was over 100 µM, the TGI [2] was over 100 µM and the TGI [8] was over 100 µM. It also gave a TGI [3] of over 100 µM, a TGI [5] of over 100 µM and a TGI [6] of over 100 µM. The TGI [7] was over 100 µM.

For `COc1ccc(CC2(O)C3CC4CCC2C4C3)cc1` (stereo not given), the TGI [2] was over 100 µM, the TGI [8] was over 100 µM and the TGI [3] was over 100 µM. For the same compound, the TGI [5] was over 100 µM, the TGI [6] was over 100 µM and the TGI [7] was over 100 µM.

Compound `O=C(NC1CCCCC1NC(c1ccccc1)(c1ccccc1)c1ccccc1)C(=O)NC1CCCCC1NC(c1ccccc1)(c1ccccc1)c1ccccc1` (stereo not given) has a TGI [1] of over 100 µM, a TGI [2] of over 100 µM and a TGI [8] of over 100 µM. It also gave a TGI [3] of over 100 µM, a TGI [5] of 76.3 µM and a TGI [6] of over 100 µM. For the same compound, the TGI [7] was over 100 µM.

Work on `COc1c(F)c(F)c(/C(O)=C\c2nc3ccccc3[nH]c2=O)c(F)c1F` yielded a TGI [2] of over 10 µM, a TGI [8] of over 10 µM and a TGI [3] of 8.34 µM. For the same compound, the TGI [4] was over 10 µM, the TGI [5] was 4.94 µM and the TGI [6] was over 10 µM.

`O=S1(=O)OCCOS(=O)(=O)C1(F)Br` gave a TGI [2] of over 100 µM, a TGI [8] of over 100 µM and a TGI [3] of over 100 µM. For the same compound, the TGI [4] was over 100 µM, the TGI [5] was over 100 µM and the TGI [6] was over 100 µM. The TGI [7] was over 100 µM.
